This is an account of results in the supplement of paper PMC10290057.

Assay [1] relates to HCT116. Briefly: efficacy (fitted maximal change in viability relative to DMSO control); higher = less cytotoxic (negative = loss of viability). Conditions: 48 h.
Assay [2] relates to HCT116. Briefly: AC50 cell viability (CellTiter-Glo); higher = less potent. Conditions: 48 h. For orientation: In ATP-based viability assays light output follows the ATP content of the culture.

Where a name gives a salt, the structure may show the parent alone.
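Wherever AC50 cell viability (CellTiter-Glo) is given: HCT116 colorectal carcinoma cells screened at five concentrations per compound, luminescent viability scaled between DMSO wells and empty wells on each plate, curves fitted per compound.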
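Wherever efficacy (fitted maximal change in viability relative to DMSO control) is given: Luminescence-based viability readout, five doses per compound, normalized against on-plate DMSO and empty-well controls, followed by dose-response curve fitting for every drug.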

`c1cn2cc(-c3ccc4cn[nH]c4c3)nc(Nc3ccc(N4CCOCC4)cc3)c2n1` [Entospletinib]: the efficacy with HCT116 [1] was -34.9%. Besides, the AC50 cell viability in the assay with HCT116 [2] is 5.9 µM.

On to `CN1CCN(c2ccc(C(=O)Nc3n[nH]c4ccc(Cc5cc(F)cc(F)c5)cc34)c(NC3CCOCC3)c2)CC1` [Entrectinib], for which the efficacy in the assay on HCT116 [1] is -101%. This compound registered an AC50 cell viability in the assay with HCT116 [2] of 5.25 µM.

In the case of `C[N]1C=C(C2=CC=CC=C12)\C3=C(\C(=O)NC3=O)C4=C[N](C5CCN(CC5)CC6=NC=CC=C6)C7=C4C=CC=C7` [Enzastaurin], the efficacy in the assay with HCT116 [1] is -56.4%. In the assay on HCT116 [2], this compound gave an AC50 cell viability of 14.8 µM.

With `Nc1nc(N)c2nc(-c3cccc(Cl)c3)c(N)nc2n1` [Epiblastin A], the efficacy in the assay on HCT116 [1] is -85%. Also, in the assay with HCT116 [2], the AC50 cell viability was determined as 1.66 µM.

Take `COc1cccc2c1C(=O)c1c(O)c3c(c(O)c1C2=O)C[C@@](O)(C(=O)CO)C[C@@H]3O[C@H]1C[C@H](N)[C@@H](O)[C@H](C)O1` [Epirubicin hydrochloride]: the efficacy in the assay with HCT116 [1] is -77.8%. In addition, the AC50 cell viability with HCT116 [2] was 0.372 µM.

As for `COC(=O)[C@H]1[C@@H](O)[C@@]2(O)c3c(OC)cc(O[C@@H]4O[C@@H]([C@@H](O)CO)CO[C@H]4OC)cc3O[C@@]2(c2ccc(OC)cc2)[C@@H]1c1ccccc1` [Episilvestrol], the efficacy in the assay on HCT116 [1] is -54.9%. The AC50 cell viability in the assay on HCT116 [2] stood at 8.33 µM.

As to `C/C(=C\c1csc(C)n1)[C@@H]1C[C@@H]2O[C@]2(C)CCC[C@H](C)[C@H](O)[C@@H](C)C(=O)C(C)(C)[C@@H](O)CC(=O)O1` [Epothilone B], the efficacy with HCT116 [1] was -49.2%. The AC50 cell viability in the assay on HCT116 [2] is 0.00662 µM.

`C/C1=C/C[C@@H](/C(C)=C/c2csc(C)n2)OC(=O)C[C@H](O)C(C)(C)C(=O)[C@H](C)[C@@H](O)[C@@H](C)CCC1` [Epothilone D]: in the assay on HCT116 [1], the efficacy was -60.3%. In the assay on HCT116 [2], this compound came in with an AC50 cell viability of 0.0166 µM.

As to `CCOC1=CC=CC=C1N\2C(=O)C3=C(C=CC=C3)\N=C2C(C)N4CCN(CC4)C(=O)COC5=CC=C(Cl)C=C5` (stereo not drawn) [Erastin], in the assay on HCT116 [1], the efficacy is -70.4%. The AC50 cell viability in the assay on HCT116 [2] was determined as 3.32 µM.

For the compound `COc1cc(OC)cc(N(CCNC(C)C)c2ccc3ncc(-c4cnn(C)c4)nc3c2)c1` [Erdafitinib], the efficacy in the assay with HCT116 [1] was -123%. The compound also gave an AC50 cell viability in the assay on HCT116 [2] of 13.2 µM.

`C=C1C[C@@H]2CC[C@@]34C[C@H]5O[C@H]6[C@@H](O3)[C@H]3O[C@H](CC[C@@H]3O[C@H]6[C@H]5O4)CC(=O)C[C@@H]3[C@@H](OC)[C@@H](C[C@H](O)CN)O[C@H]3C[C@H]3O[C@@H](CC[C@@H]1O2)C[C@@H](C)C3=C` [Eribulin mesylate]: the efficacy in the assay on HCT116 [1] was -56.4%. In the assay on HCT116 [2], this compound had an AC50 cell viability of 0.00241 µM.

As for `C#Cc1cccc(Nc2ncnc3cc(OCCOC)c(OCCOC)cc23)c1` [Erlotinib], the efficacy in the assay on HCT116 [1] was -47.1%. In addition, the AC50 cell viability with HCT116 [2] amounted to 9.34 µM.

On to `Oc1ccc([C@@H]2Oc3ccc(O)cc3[C@@H]3CCC[C@@H]32)cc1` [Erteberel], for which the efficacy with HCT116 [1] was -73.8%. Also, the AC50 cell viability in the assay on HCT116 [2] came to 7.42 µM.

For the compound `C[C@]12CC[C@@H]3c4ccc(O)cc4CC[C@H]3[C@@H]1CC[C@@H]2O` [Estradiol], the efficacy in the assay with HCT116 [1] is -60.4%. The same compound displayed an AC50 cell viability in the assay with HCT116 [2] of 20.9 µM.

With `CCOC(=O)[C@@]1(CCCCCCOc2ccc(Cl)cc2)CO1` [Etomoxir], the efficacy in the assay with HCT116 [1] was -42.1%. For the same compound, the AC50 cell viability with HCT116 [2] was determined as 18.6 µM.

On to `COc1cc([C@@H]2c3cc4c(cc3[C@@H](O[C@@H]3O[C@@H]5CO[C@@H](C)O[C@H]5[C@H](O)[C@H]3O)[C@H]3COC(=O)[C@H]23)OCO4)cc(OC)c1O` [Etoposide], for which the efficacy with HCT116 [1] is -41.9%. Besides, the AC50 cell viability in the assay with HCT116 [2] turned out to be 2.95 µM.

`C=CC(=O)N1CCC(CNc2ncnc(N)c2-c2ccc(Oc3ccccc3)cc2)CC1` [Evobrutinib]: the efficacy in the assay with HCT116 [1] was -43.5%. The compound also gave an AC50 cell viability with HCT116 [2] of 4.68 µM.

For the compound `CN1c2ccccc2C(=O)N2CCc3c([nH]c4ccccc34)C21` (stereo not drawn) [Evodiamine], the efficacy with HCT116 [1] was -64.2%. The same compound came in with an AC50 cell viability in the assay with HCT116 [2] of 1.66 µM.

`CC[C@@]1(O)C(=O)OC/C2=C1/C=C3\N(CC4=C5[C@@H](N)CCC6=C5C(=CC(=C6C)F)N=C34)C2=O` [Exatecan]: the efficacy in the assay with HCT116 [1] was -64%. This compound also had an AC50 cell viability in the assay on HCT116 [2] of 0.0417 µM.

Consider `C[C@]12CC[C@H]3[C@@H](CC(=C)\C4=C\C(=O)\C=C/[C@]34C)[C@@H]1CCC2=O` [Exemestane], for which the efficacy with HCT116 [1] was -65%. The compound also came in with an AC50 cell viability in the assay with HCT116 [2] of 18.6 µM.

As to `C=CC[C@@H]1/C=C(\C)C[C@H](C)C[C@H](OC)[C@H]2O[C@@](O)(C(=O)C(=O)N3CCCC[C@H]3C(=O)O[C@H](/C(C)=C/[C@@H]3CC[C@@H](O)[C@H](OC)C3)[C@H](C)[C@@H](O)CC1=O)[C@H](C)C[C@@H]2OC` [FK-506], the efficacy in the assay on HCT116 [1] was -91.2%. This compound also yielded an AC50 cell viability in the assay with HCT116 [2] of 23.5 µM.

As to `CCN1C(=O)\C(=C/C2=C1N=C(NC3=CC=C(N4CCNCC4)C(=C3)F)N=C2)C5=CC=C(Cl)C=C5Cl` [FRAX-486], the efficacy in the assay on HCT116 [1] was -32.6%. The same compound displayed an AC50 cell viability in the assay with HCT116 [2] of 2.63 µM.

For the compound `CCN1C(=O)\C(=C/C2=CN=C(NC3=CC=C(C=C3)N4CCN(C)CC4)N=C12)C5=C(Cl)C=C(C=C5)C6=CN=CS6` [FRAX-597], the efficacy in the assay with HCT116 [1] is -59%. In addition, in the assay with HCT116 [2], the AC50 cell viability came out at 5.9 µM.

As to `CCOC(=N)c1nc2ccc3ncnc(Nc4cc(F)c(F)cc4Cl)c3c2s1` [FX-9847], in the assay with HCT116 [1], the efficacy was -41.6%. The same compound registered an AC50 cell viability in the assay with HCT116 [2] of 4.68 µM.
